Source: PubChem BioAssay (NCI)
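How tested: cells in 96-well plates exposed to compound for 48 hours at five concentrations. Here, GI50 denotes the concentration required for 50% inhibition of growth. At the TGI there is no net growth.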

What was measured:
Assay in all cases: growth of human tumour cells (NCI), 48 h
SK-MEL-5 melanoma = tested on: SK-MEL-5 melanoma
SN12C renal = tested on: SN12C renal
EKVX NSCLC = tested on: EKVX NSCLC
HCT-116 colon = tested on: HCT-116 colon
SNB-75 CNS = tested on: SNB-75 CNS
RXF 393 renal = tested on: RXF 393 renal
A498 renal = tested on: A498 renal
ACHN renal = tested on: ACHN renal
SNB-19 CNS = tested on: SNB-19 CNS
T-47D breast = tested on: T-47D breast

COc1cc(CC2c3cc(OC)c(OC)cc3CCN2C)c(C(=O)O)cc1OC (stereo not drawn)
TGI (SK-MEL-5 melanoma): > 100 µM | TGI (SN12C renal): > 100 µM | TGI (EKVX NSCLC): > 100 µM | TGI (HCT-116 colon): > 100 µM | TGI (SNB-75 CNS): > 100 µM | TGI (RXF 393 renal): > 100 µM | TGI (A498 renal): > 100 µM | TGI (ACHN renal): > 100 µM | TGI (SNB-19 CNS): > 100 µM

O=C(c1ccco1)c1c(C(F)(F)F)n([O-])c2cc(Cl)c(Cl)cc2[n+]1=O
GI50 (SK-MEL-5 melanoma): 0.727 µM | TGI (SK-MEL-5 melanoma): 1.45 µM | GI50 (SN12C renal): 0.65 µM | TGI (SN12C renal): 1.41 µM | GI50 (T-47D breast): 7.03 µM | TGI (T-47D breast): 15.3 µM | GI50 (EKVX NSCLC): 0.887 µM | TGI (EKVX NSCLC): 1.86 µM | GI50 (HCT-116 colon): 0.269 µM | TGI (HCT-116 colon): 0.921 µM | GI50 (SNB-75 CNS): 6.16 µM | TGI (SNB-75 CNS): 13.6 µM | GI50 (A498 renal): 1.53 µM | TGI (A498 renal): 3.62 µM | GI50 (ACHN renal): 0.443 µM | TGI (ACHN renal): 1.11 µM | GI50 (SNB-19 CNS): 6.41 µM | TGI (SNB-19 CNS): 14.8 µM

CCCCP1(=O)C=CC(Cl)=C(C)C1 (stereo not drawn)
TGI (SK-MEL-5 melanoma): > 100 µM | TGI (SN12C renal): > 100 µM | TGI (EKVX NSCLC): > 100 µM | TGI (HCT-116 colon): > 100 µM | TGI (RXF 393 renal): > 100 µM | TGI (A498 renal): > 100 µM | TGI (ACHN renal): > 100 µM

CC1(C)OC2OC(/C=C/[N+](=O)[O-])C3OC(C)(C)OC3C2O1 (stereo not drawn)
TGI (SK-MEL-5 melanoma): 31.7 µM | TGI (SN12C renal): 31.1 µM | TGI (EKVX NSCLC): 41.9 µM | TGI (HCT-116 colon): 23 µM | TGI (SNB-75 CNS): 34.8 µM | TGI (RXF 393 renal): 5.99 µM | TGI (A498 renal): 47.1 µM | TGI (ACHN renal): 28.8 µM | TGI (SNB-19 CNS): 33.5 µM

C=CC(C)(C)[C@@]12CC3C(=O)N[C@@H](Cc4ccccc4)C(=O)N3[C@@H]1N(C(C)=O)c1ccccc12 (stereo partly drawn)
TGI (SK-MEL-5 melanoma): > 100 µM | TGI (SN12C renal): > 100 µM | TGI (EKVX NSCLC): > 100 µM | TGI (HCT-116 colon): > 100 µM | TGI (SNB-75 CNS): > 100 µM | TGI (A498 renal): > 100 µM | TGI (ACHN renal): > 100 µM | TGI (SNB-19 CNS): > 100 µM

CC1SC(c2ccc(OCc3ccccc3)cc2)N(NC(=O)C(O)(c2ccccc2)c2ccccc2)C1=O (stereo not drawn)
GI50 (SK-MEL-5 melanoma): 8.26 µM | TGI (SK-MEL-5 melanoma): 20.7 µM | GI50 (SN12C renal): 3.95 µM | TGI (SN12C renal): 13.8 µM | GI50 (T-47D breast): 3.52 µM | TGI (T-47D breast): 14.9 µM | GI50 (EKVX NSCLC): 5.49 µM | TGI (EKVX NSCLC): 22.5 µM | GI50 (HCT-116 colon): 1.76 µM | TGI (HCT-116 colon): 4.71 µM | GI50 (SNB-75 CNS): 3.72 µM | TGI (SNB-75 CNS): 18.1 µM | GI50 (A498 renal): 3.34 µM | TGI (A498 renal): 13.7 µM | GI50 (ACHN renal): 2.74 µM | TGI (ACHN renal): 9.38 µM | GI50 (SNB-19 CNS): 5 µM | TGI (SNB-19 CNS): 21.5 µM

COC(=O)N1C=Cc2c(c(C)c3c([nH]c4ccccc43)c2C)C1C (stereo not drawn)
TGI (SK-MEL-5 melanoma): 31.1 µM | TGI (EKVX NSCLC): 32.1 µM | TGI (HCT-116 colon): 25.6 µM | TGI (SNB-75 CNS): 47.8 µM | TGI (A498 renal): 28.8 µM | TGI (SNB-19 CNS): 35.6 µM

Cc1c(Cl)ccc2[s+]snc12
TGI (SK-MEL-5 melanoma): 52.1 µM | TGI (SN12C renal): 57.3 µM | TGI (EKVX NSCLC): > 100 µM | TGI (HCT-116 colon): 59 µM | TGI (SNB-75 CNS): > 100 µM | TGI (RXF 393 renal): 37.2 µM | TGI (A498 renal): > 100 µM | TGI (ACHN renal): > 100 µM | TGI (SNB-19 CNS): > 100 µM

C/C(=N\NC(N)=S)c1ccc(Oc2ccccc2)cc1
TGI (SK-MEL-5 melanoma): 18.8 µM | TGI (SN12C renal): 38.4 µM | TGI (EKVX NSCLC): 50.4 µM | TGI (HCT-116 colon): 22.6 µM | TGI (SNB-75 CNS): 33.6 µM | TGI (RXF 393 renal): 26.2 µM | TGI (A498 renal): 29.5 µM | TGI (ACHN renal): 42.7 µM | TGI (SNB-19 CNS): 84.5 µM

O=C1C(=C2C(=O)c3ccccc3[N+]2=O)N([O-])c2ccccc21
TGI (SK-MEL-5 melanoma): 32.5 µM | TGI (EKVX NSCLC): 42.2 µM | TGI (SNB-75 CNS): 83.8 µM | TGI (RXF 393 renal): 90.6 µM | TGI (A498 renal): 73.8 µM | TGI (ACHN renal): 91.4 µM | TGI (SNB-19 CNS): > 100 µM

O=c1ccn([C@@H]2C[C@H](CO)CS(=O)C2)c(=O)[nH]1 (stereo partly drawn)
TGI (SK-MEL-5 melanoma): > 100 µM | TGI (SN12C renal): > 100 µM | TGI (EKVX NSCLC): > 100 µM | TGI (HCT-116 colon): > 100 µM | TGI (SNB-75 CNS): > 100 µM | TGI (A498 renal): > 100 µM | TGI (ACHN renal): > 100 µM | TGI (SNB-19 CNS): > 100 µM

CCn1c(O)c(C(=O)Nc2cccs2)c(=O)n(CC)c1=S
TGI (SK-MEL-5 melanoma): 38.5 µM | TGI (SN12C renal): 70.8 µM | TGI (HCT-116 colon): 37.3 µM | TGI (SNB-75 CNS): 33.4 µM | TGI (A498 renal): 36.8 µM | TGI (ACHN renal): 63.2 µM | TGI (SNB-19 CNS): 48 µM

CCCCCCCCCCCCCCCCCCCCCCC(=O)N[C@H]1CCc2cc(OC)c(OC)c(OC)c2-c2ccc(SC)c(=O)cc21
TGI (SK-MEL-5 melanoma): > 100 µM | TGI (SN12C renal): > 100 µM | TGI (EKVX NSCLC): > 100 µM | TGI (HCT-116 colon): 69.3 µM | TGI (SNB-75 CNS): 58.2 µM | TGI (A498 renal): 40.7 µM | TGI (ACHN renal): > 100 µM | TGI (SNB-19 CNS): > 100 µM

O=C(/C=C/c1c[nH]c2ccccc12)c1ccccc1O
TGI (SN12C renal): 28.8 µM | TGI (T-47D breast): 7.29 µM | TGI (EKVX NSCLC): 33 µM | TGI (HCT-116 colon): 26 µM | TGI (SNB-75 CNS): 27.2 µM | TGI (A498 renal): 28.5 µM | TGI (ACHN renal): 25.2 µM | TGI (SNB-19 CNS): 36.7 µM

O=C(N=Nc1c(O)[nH]c2c(Cl)cc(Cl)cc12)C(=O)Nc1cccc(C(F)(F)F)c1
TGI (SK-MEL-5 melanoma): > 100 µM | TGI (SN12C renal): > 100 µM | TGI (EKVX NSCLC): > 100 µM | TGI (HCT-116 colon): > 100 µM | TGI (SNB-75 CNS): > 100 µM | TGI (RXF 393 renal): > 100 µM | TGI (A498 renal): > 100 µM | TGI (ACHN renal): > 100 µM | TGI (SNB-19 CNS): > 100 µM

CCN(CC)CCCC(C)Nc1ccnc2cc(OC)ccc12 (stereo not drawn)
GI50 (SK-MEL-5 melanoma): 18.3 µM | TGI (SK-MEL-5 melanoma): 32.8 µM | GI50 (SN12C renal): 29.7 µM | TGI (SN12C renal): 75.1 µM | GI50 (EKVX NSCLC): 44.9 µM | TGI (EKVX NSCLC): > 100 µM | GI50 (HCT-116 colon): 29.2 µM | TGI (HCT-116 colon): 46 µM | GI50 (RXF 393 renal): 15.7 µM | TGI (RXF 393 renal): 35.5 µM | GI50 (A498 renal): 35.3 µM | TGI (A498 renal): > 100 µM | GI50 (ACHN renal): 39.4 µM | TGI (ACHN renal): > 100 µM | GI50 (SNB-19 CNS): 22.4 µM | TGI (SNB-19 CNS): 53.3 µM

COc1ccc2c(c1)c(-c1nc(-c3cn(C)c4ncccc34)cs1)cn2CCCCN1CCCCC1
GI50 (SK-MEL-5 melanoma): 1.71 µM | TGI (SK-MEL-5 melanoma): 3.08 µM | GI50 (EKVX NSCLC): 1.66 µM | TGI (EKVX NSCLC): 3.18 µM | GI50 (SNB-75 CNS): 1.07 µM | TGI (SNB-75 CNS): 2.28 µM | GI50 (RXF 393 renal): 1.33 µM | TGI (RXF 393 renal): 2.82 µM | GI50 (A498 renal): 1.66 µM | TGI (A498 renal): 3.11 µM | GI50 (ACHN renal): 1.65 µM | TGI (ACHN renal): 3 µM

C[C@H](O)CCC(=O)c1ccoc1
TGI (SK-MEL-5 melanoma): > 100 µM | TGI (SN12C renal): > 100 µM | TGI (EKVX NSCLC): > 100 µM | TGI (HCT-116 colon): > 100 µM | TGI (SNB-75 CNS): > 100 µM | TGI (RXF 393 renal): > 100 µM | TGI (A498 renal): > 100 µM | TGI (ACHN renal): > 100 µM | TGI (SNB-19 CNS): > 100 µM

O=C(CC1(O)C(=O)Nc2ccc(Br)cc21)c1cccc([N+](=O)[O-])c1 (stereo not drawn)
TGI (SN12C renal): > 100 µM | TGI (EKVX NSCLC): > 100 µM | TGI (SNB-75 CNS): 97.2 µM | TGI (RXF 393 renal): 83.8 µM | TGI (ACHN renal): > 100 µM | TGI (SNB-19 CNS): > 100 µM

C=CN(C(=O)N1CCN(c2cc3c(cc2F)c(=O)c(C(=O)O)cn3C2CC2)CC1)c1nc(-c2ccc(C)cc2)cs1
GI50 (SN12C renal): 3.46 µM | TGI (SN12C renal): > 100 µM | GI50 (EKVX NSCLC): 3.61 µM | TGI (EKVX NSCLC): > 100 µM | GI50 (HCT-116 colon): 0.319 µM | TGI (HCT-116 colon): > 100 µM | GI50 (SNB-75 CNS): 2.13 µM | TGI (SNB-75 CNS): 6.59 µM | GI50 (RXF 393 renal): 4 µM | TGI (RXF 393 renal): > 100 µM | GI50 (ACHN renal): 3.38 µM | TGI (ACHN renal): > 100 µM | GI50 (SNB-19 CNS): 4.16 µM | TGI (SNB-19 CNS): > 100 µM

O=C(c1ccccc1)N1CCc2c([nH]c3ccccc23)C1
TGI (SK-MEL-5 melanoma): 47.6 µM | TGI (SN12C renal): > 100 µM | TGI (EKVX NSCLC): > 100 µM | TGI (HCT-116 colon): > 100 µM | TGI (SNB-75 CNS): > 100 µM | TGI (ACHN renal): > 100 µM | TGI (SNB-19 CNS): > 100 µM

CCc1cccc(CC)c1NC1=CC(=O)C(=O)c2ccccc21
TGI (SK-MEL-5 melanoma): 21.6 µM | TGI (SN12C renal): 76.5 µM | TGI (EKVX NSCLC): 27.9 µM | TGI (HCT-116 colon): 34.8 µM | TGI (SNB-75 CNS): 49.3 µM | TGI (RXF 393 renal): 45.2 µM | TGI (A498 renal): 39.5 µM | TGI (ACHN renal): 26 µM | TGI (SNB-19 CNS): 63.3 µM
